System: choroidal neovascularization (CNV)
Assay: laser irradiation-induced choroidal neovascularization mouse model (CNV model)
Type: in vivo, male C57BL/6J mouse
Conditions: oral 20 mg/kg, once on laser-induction day then twice per day; compared to vehicle (0.5% hydroxypropylmethylcellulose) oral group; t-test p<0.05; FIG. 1
Description: As a result, VEGF is produced, and a new blood vessel is developed. Therefore, the CNV model is an experimental model showing the efficacy on a disease associated with ocular angiogenesis via VEGF.
Using (2S)-[4-(carboxymethyl)thiazol-2-ylthio]-N-{[4-(3,4-dichlorobenzyl)morpholin-2-yl]methyl}acetamide hydrobromide as a test compound, the following experiment was performed.
Laser was irradiated (6 spot irradiation) on one eye of male C57BL/6J mouse (7-week-old) to experimentally induce CNV.
The mouse was intramuscularly administered (1 mL/kg) with a ketamine hydrochloride/xylazine hydrochloride (1:1, v/v) mixed solution into the thigh and, after systemic anesthesia, mydriasis was induced with mydriatic eye drops, and laser irradiation (wavelength 532 nm, spot size 50 μm, irradiation time 0.1 second, laser output 120 mW) was performed at 6 points while avoiding thick capillary in the retina. […]
At 7 days from the laser irradiation, under systemic anesthesia by intramuscular administration (1 mL/kg) of a ketamine hydrochloride/xylazine hydrochloride (1:1, v/v) mixed solution into the thigh, a 4% FITC-dextran solution was administered at 0.5 mL/animal from the tail vein. […] Using a confocal microscope (OLYMPUS FV-1000D; magnification: ×20, number of pixels: 512 pixel×512 pixel), CNV site in a flat mount specimen was photographed, and measured using an image analysis software (NIH ImageJ). […]

Br.O=C(O)Cc1csc(SCC(=O)NC[C@H]2CN(Cc3ccc(Cl)c(Cl)c3)CCO2)n1 [test compound, (2S)-[4-(carboxymethyl)thiazol-2-ylthio]-N-{[4-(3,4-dichlorobenzyl)morpholin-2-yl]methyl}acetamide hydrobromide]
CNV area after 7 days from laser irradiation (CNV suppressive effect): significant CNV suppressive effect
